Measured values taken from patent US20060252048A1, “Method for testing ghrelin release” (priority 2003, published 2006).
Where no end group is shown, it is not given here. The star is where a group is joined. SO3H = O=S(=O)(O)*

System: RF-48 cells
Assay: ghrelin release from RF-48 cells measured by enzyme immunoassay
Type: cell-based, human
Settings: 1 hour incubation with test compound, supernatant measured with EIA kit, compared with control and control+vehicle (FIG. 1)
Description: These test compounds were made as 100× stock solutions by dissolving them in pure ethanol, as a vehicle. The test compounds were then diluted 1/100 in the Leibovitz L-15 medium containing 0.5% foetal bovine serum (FBS).
Since the effect caused by these test compounds on ghrelin release by a RF-48 cell line was tested, RF-48 cells were grown during incubation at 37° C. in Leibovitz's L15 medium with 2 mM L-glutamine and containing 10% (vol/vol) FBS in the absence of CO2.
After cell confluence was obtained, the cells were plated in 24-well cultures plates (1×10^5 cells/well). Several wells were subsequently exposed to one of the test compounds as prepared above. For each type and concentration of test compound tested, a series of three tests was carried out.
After 1 hour of incubation of the thus-filled wells containing both the cells and the test compound at the same conditions as those applied during growing of the RF-48 cells, a sample was taken from each well to measure ghrelin release.
Each sample was centrifuged at 3000 rpm to remove the cells from the sample and the supernatant (containing the ghrelin formed as well as the medium and the test compound) was transferred to a separate tube. The ghrelin release was measured using a commercial enzyme immunoassay kit (from Phoenix Pharmaceuticals, Belmont, Calif., USA). […]

In the case of “Tyr(SO3H]27)Cholecystokinin fragment 26-33 Amide (DY(SO3H)MGWMDF-NH2; UniProt P06307 96-103, looked up) [CCK]”, the ghrelin release is reported as “stimulate the release of ghrelin”.
